According to patent publication US9867831B2, “Combination treatment of acute myeloid leukemia and myelodysplastic syndrome” (Boehringer Ingelheim International GmbH, priority 2014, dated 2018):

Test system: human AML cell line MV4;11
Test: Nude mouse xenograft model derived from human AML cell line MV4;11 (tumor growth)
Type: in vivo
Conditions: MV4;11 s.c. xenograft in nude mice; Volasertib 20 mg/kg once a week i.v., Quizartinib 5 or 10 mg/kg daily p.o.; treated 14 days, observation without treatment up to day 87
Description: Median tumor volumes are plotted over time. Day 1 was the first day, day 87 the last day of the experiment.
MV4;11 (CRL-9591) cells were obtained from ATCC. […] Cells were cultured in T175 tissue culture flasks at 37° C. and 5% CO2. The medium used was IMDM supplemented with 10% fetal calf serum, 1% NEAA, 1% sodium pyruvate and 1% glutamine.
Mice were 8 week-old athymic female BomTac: NMRI-Foxn1^nu purchased from Taconic, Denmark. After arrival in the animal facility, mice were allowed to adjust to ambient conditions for at least 3 days before they were used for experiments. They were housed in Macrolon® type II cages in groups of 5 under standardized conditions at 21.5±1.5° C. temperature and 55±10% humidity. Standardized diet (PROVIMI KLIBA) and autoclaved tap water were provided ad libitum.
To establish subcutaneous tumors, MV4;11 cells were harvested and resuspended in PBS+5% FCS at 5×10^7 cells/ml. 50 μl of the cell suspension containing 2.5×10^6 cells was then injected subcutaneously into the right flank of the mice (1 site per mouse). […]
The tumor diameter was measured three times a week with a caliper. The volume of each tumor [in mm^3] was calculated according to the formula “tumor volume=length*diameter^2*π/6”. To monitor side effects of treatment, mice were inspected daily for abnormalities and body weight was determined three times a week. […]

With `CC(C)(C)c1cc(NC(=O)Nc2ccc(-c3cn4c(n3)sc3cc(OCCN5CCOCC5)ccc34)cc2)no1` [Quizartinib] the “tumor growth kinetics (median tumor volumes over time)” value was “outgrowth of the tumor”.
